Measurements taken from ChEMBL document CHEMBL1132591, “Synthesis of retinoid X receptor-specific ligands that are potent inducers of adipogenesis in 3T3-L1 cells” (J Med Chem, 1999).

What was measured:
[1] = biological target: T1, Retinoic acid receptor alpha (Homo sapiens) (UniProt P10276); test: Percent transcriptional activation relative to ATRA in CV-1 cells expressing Retinoic acid receptor RAR alpha; type: functional, cell-based
T1 sequence (whole entry): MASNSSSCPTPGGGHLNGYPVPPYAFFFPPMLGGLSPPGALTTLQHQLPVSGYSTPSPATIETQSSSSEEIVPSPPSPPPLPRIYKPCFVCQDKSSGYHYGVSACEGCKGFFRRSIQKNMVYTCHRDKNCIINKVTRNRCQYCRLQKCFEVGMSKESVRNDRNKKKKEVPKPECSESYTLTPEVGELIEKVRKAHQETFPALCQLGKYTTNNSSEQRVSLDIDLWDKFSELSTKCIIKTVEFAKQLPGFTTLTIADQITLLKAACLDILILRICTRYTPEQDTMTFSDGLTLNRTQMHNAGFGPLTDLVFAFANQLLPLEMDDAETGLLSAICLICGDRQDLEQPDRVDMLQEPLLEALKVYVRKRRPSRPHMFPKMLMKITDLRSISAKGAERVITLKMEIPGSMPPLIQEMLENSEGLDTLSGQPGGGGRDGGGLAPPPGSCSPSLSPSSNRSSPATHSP

[2] = biological target: T2, Retinoic acid receptor beta (Homo sapiens, UniProt P10826); test: Inhibition of [3H]ATRA binding to baculovirus expressed Retinoic acid receptor RAR beta
T2 sequence (P10826 whole entry): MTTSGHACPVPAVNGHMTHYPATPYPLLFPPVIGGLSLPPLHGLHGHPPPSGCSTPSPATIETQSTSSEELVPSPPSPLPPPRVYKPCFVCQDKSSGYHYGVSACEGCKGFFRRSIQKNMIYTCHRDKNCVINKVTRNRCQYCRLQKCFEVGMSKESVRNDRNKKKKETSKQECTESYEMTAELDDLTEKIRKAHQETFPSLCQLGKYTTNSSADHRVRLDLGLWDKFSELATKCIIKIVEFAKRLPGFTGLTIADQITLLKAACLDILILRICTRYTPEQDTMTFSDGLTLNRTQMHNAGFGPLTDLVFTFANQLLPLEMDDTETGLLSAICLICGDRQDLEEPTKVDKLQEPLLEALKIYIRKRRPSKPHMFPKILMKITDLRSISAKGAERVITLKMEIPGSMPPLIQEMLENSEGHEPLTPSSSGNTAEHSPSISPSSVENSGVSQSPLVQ

[3] = biological target: T3, Retinoic acid receptor RXR-gamma (Homo sapiens, UniProt P48443); test: Transcriptional activity was evaluated in CV-1 cells transfected with expression vector for Retinoic acid receptor RXR-gamma; type: functional, cell-based
T3 sequence (P48443 whole entry): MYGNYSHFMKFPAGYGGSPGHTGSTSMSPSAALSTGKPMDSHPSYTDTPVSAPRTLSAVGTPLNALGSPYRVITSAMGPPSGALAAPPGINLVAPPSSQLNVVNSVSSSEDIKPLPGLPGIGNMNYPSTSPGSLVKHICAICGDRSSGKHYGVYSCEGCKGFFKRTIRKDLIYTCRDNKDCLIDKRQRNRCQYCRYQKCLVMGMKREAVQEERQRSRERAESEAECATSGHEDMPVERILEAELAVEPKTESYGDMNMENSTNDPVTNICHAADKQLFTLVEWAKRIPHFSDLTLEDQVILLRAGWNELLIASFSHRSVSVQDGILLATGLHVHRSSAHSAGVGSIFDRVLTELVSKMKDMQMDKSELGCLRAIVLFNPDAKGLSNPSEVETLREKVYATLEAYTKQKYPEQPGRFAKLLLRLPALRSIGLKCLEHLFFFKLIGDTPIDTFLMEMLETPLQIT

[4] = biological target: T4, Retinoic acid receptor gamma (Homo sapiens, UniProt P13631); test: Inhibition of [3H]-ATRA binding to baculovirus expressed Retinoic acid receptor RAR gamma
T4 sequence (P13631 whole entry): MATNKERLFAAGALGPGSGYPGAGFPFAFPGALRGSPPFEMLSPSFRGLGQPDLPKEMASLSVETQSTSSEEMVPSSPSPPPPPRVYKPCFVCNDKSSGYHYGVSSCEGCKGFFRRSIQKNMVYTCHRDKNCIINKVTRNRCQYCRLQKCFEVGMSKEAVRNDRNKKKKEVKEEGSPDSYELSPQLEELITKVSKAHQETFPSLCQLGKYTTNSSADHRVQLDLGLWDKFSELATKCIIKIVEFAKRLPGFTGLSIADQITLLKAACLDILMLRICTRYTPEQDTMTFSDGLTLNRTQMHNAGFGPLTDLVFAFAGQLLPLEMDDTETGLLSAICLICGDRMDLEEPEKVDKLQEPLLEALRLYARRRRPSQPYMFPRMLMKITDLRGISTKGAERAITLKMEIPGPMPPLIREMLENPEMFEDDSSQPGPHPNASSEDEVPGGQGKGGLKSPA

[5] = biological target: T5, Retinoic acid receptor alpha (Homo sapiens, UniProt P10276); test: Inhibition of [3H]ATRA binding to baculovirus expressed Retinoic acid receptor RAR alpha
T5 sequence (P10276 whole entry): T1 sequence (whole entry)

[6] = biological target: T3, Retinoic acid receptor RXR-gamma; test: Binding affinity towards recombinantly expressed Retinoic acid receptor RXR-gamma in baculoviral system, by using 5 nM [3H]targretin in a competitive binding assay
[7] = biological target: T6, Retinoic acid receptor RXR-beta (Homo sapiens) (UniProt P28702); test: Percent transcriptional activation relative to ATRA in CV-1 cells expressing Retinoid X receptor RXR beta; type: functional, cell-based
T6 sequence (whole entry): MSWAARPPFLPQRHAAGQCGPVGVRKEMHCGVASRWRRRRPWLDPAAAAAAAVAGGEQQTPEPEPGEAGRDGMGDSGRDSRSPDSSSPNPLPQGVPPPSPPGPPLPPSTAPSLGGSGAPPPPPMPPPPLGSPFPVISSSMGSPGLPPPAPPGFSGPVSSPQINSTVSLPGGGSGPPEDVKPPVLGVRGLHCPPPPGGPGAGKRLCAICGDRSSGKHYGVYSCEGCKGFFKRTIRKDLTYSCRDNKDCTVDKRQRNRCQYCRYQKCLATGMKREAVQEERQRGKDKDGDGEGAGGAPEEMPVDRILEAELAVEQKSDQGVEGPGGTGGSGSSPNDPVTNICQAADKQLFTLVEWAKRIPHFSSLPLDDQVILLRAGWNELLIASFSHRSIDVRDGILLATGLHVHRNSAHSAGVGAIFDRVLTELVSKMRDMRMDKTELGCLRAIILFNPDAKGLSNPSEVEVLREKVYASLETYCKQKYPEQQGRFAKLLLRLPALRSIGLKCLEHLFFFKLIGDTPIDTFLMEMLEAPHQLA

[8] = biological target: T7, Retinoic acid receptor RXR-beta (Homo sapiens, UniProt P28702); test: Binding affinity towards recombinantly expressed Retinoic acid receptor RXR-beta in baculoviral system, by using 5 nM [3H]targretin in a competitive binding assay
T7 sequence (P28702 whole entry): T6 sequence (whole entry)

[9] = biological target: T8, Retinoic acid receptor gamma (Homo sapiens) (UniProt P13631); test: Percent transcriptional activation relative to ATRA in CV-1 cells expressing Retinoic acid receptor RAR gamma; type: functional, cell-based
T8 sequence (whole entry): T4 sequence (P13631 whole entry)

[10] = biological target: T7, Retinoic acid receptor RXR-beta; test: Transcriptional activity was evaluated in CV-1 cells transfected with expression vector for Retinoic acid receptor RXR-beta; type: functional, cell-based
[11] = biological target: T9, Retinoic acid receptor RXR-alpha (Homo sapiens, UniProt P19793); test: Transcriptional activity was evaluated in CV-1 cells transfected with expression vector for Retinoic acid receptor RXR-alpha; type: functional, cell-based
T9 sequence (P19793 whole entry): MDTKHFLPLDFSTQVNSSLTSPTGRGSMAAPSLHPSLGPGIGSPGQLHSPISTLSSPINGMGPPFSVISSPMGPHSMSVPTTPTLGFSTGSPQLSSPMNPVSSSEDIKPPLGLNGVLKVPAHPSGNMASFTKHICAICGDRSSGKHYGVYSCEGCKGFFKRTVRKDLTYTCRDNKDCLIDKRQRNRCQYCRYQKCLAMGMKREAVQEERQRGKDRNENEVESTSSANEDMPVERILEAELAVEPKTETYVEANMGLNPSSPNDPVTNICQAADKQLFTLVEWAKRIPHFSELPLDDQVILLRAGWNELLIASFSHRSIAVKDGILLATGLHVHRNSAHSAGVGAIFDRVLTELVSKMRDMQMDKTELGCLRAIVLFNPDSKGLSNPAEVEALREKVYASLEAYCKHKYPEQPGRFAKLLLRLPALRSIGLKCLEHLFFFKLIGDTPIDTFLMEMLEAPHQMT

[12] = biological target: T9, Retinoic acid receptor RXR-alpha; test: Binding affinity towards recombinantly expressed Retinoic acid receptor RXR-alpha in baculoviral system, by using 5 nM [3H]targretin in a competitive binding assay
[13] = biological target: T10, Retinoic acid receptor beta (Homo sapiens) (UniProt P10826); test: Percent transcriptional activation relative to ATRA in CV-1 cells expressing Retinoic acid receptor RAR beta; type: functional, cell-based
T10 sequence (whole entry): T2 sequence (P10826 whole entry)

Efficacy [1] | Ki [2] | EC50 [3] | Ki [4] | Ki [5] | Ki [6] | Efficacy [7] | Ki [8] | Efficacy [9] | EC50 [10] | EC50 [11] | Ki [12] | Efficacy [13] | Compound
2% | > 10000 nM | 4 nM | > 10000 nM | > 10000 nM | 8 nM | 90% | 8 nM | 2% | 10 nM | 5 nM | 9 nM | 5% | CO/N=C(\c1ccc(C(=O)O)cc1)c1cc2c(cc1C)C(C)(C)CCC2(C)C
6% | – | 7 nM | – | – | 5 nM | 81% | 5 nM | 13% | 14 nM | – | – | 10% | Cc1cc2c(cc1/C(=N/O)c1ccc(C(=O)O)cc1)C(C)(C)CCC2(C)C
– | – | 28 nM | – | – | 57 nM | – | 61 nM | – | 37 nM | 32 nM | 6 nM | – | CCCO/N=C(\c1ccc(C(=O)O)cc1)c1cc2c(cc1C)C(C)(C)CCC2(C)C
– | – | 9 nM | – | – | 42 nM | – | 58 nM | – | 12 nM | 5 nM | 26 nM | – | CCO/N=C(\c1ccc(C(=O)O)cc1)c1cc2c(cc1C)C(C)(C)CCC2(C)C
– | – | 26 nM | – | – | 57 nM | – | 6 nM | – | 32 nM | 27 nM | 12 nM | – | CC1(C)CCC(C)(C)c2cc(/C(=N/O)c3ccc(C(=O)O)cc3)c(Br)cc21
– | – | > 10000 nM | – | – | 467 nM | – | > 1000 nM | – | > 10000 nM | > 10000 nM | 620 nM | – | CCO/N=C(/c1ccc(C(=O)O)cc1)c1cc2c(cc1C)C(C)(C)CCC2(C)C
– | – | 11 nM | – | – | 14 nM | – | 14 nM | – | 25 nM | 12 nM | 11 nM | – | Cc1cc2c(cc1/C(=N/OCC#N)c1ccc(C(=O)O)cc1)C(C)(C)CCC2(C)C
– | – | > 10000 nM | – | – | 445 nM | – | 623 nM | – | > 10000 nM | > 10000 nM | 484 nM | – | Cc1cc2c(cc1/C(=N/OC(C)(C)C)c1ccc(C(=O)O)cc1)C(C)(C)CCC2(C)C
– | – | 306 nM | – | – | > 1000 nM | – | > 1000 nM | – | 61 nM | 350 nM | > 1000 nM | – | Cc1cc2c(cc1/C(=N/OCCN)c1ccc(C(=O)O)cc1)C(C)(C)CCC2(C)C
– | – | 1380 nM | – | – | > 1000 nM | – | > 1000 nM | – | 1380 nM | 713 nM | > 1000 nM | – | Cc1cc2c(cc1/C(=N/OCC(=O)O)c1ccc(C(=O)O)cc1)C(C)(C)CCC2(C)C
– | – | 34 nM | – | – | 209 nM | – | 120 nM | – | 165 nM | – | – | – | Cc1cc2c(cc1/C(=N\O)c1ccc(C(=O)O)cc1)C(C)(C)CCC2(C)C
– | – | 7 nM | – | – | 80 nM | – | 15 nM | – | 18 nM | 6 nM | 7 nM | – | C=CCO/N=C(\c1ccc(C(=O)O)cc1)c1cc2c(cc1C)C(C)(C)CCC2(C)C
– | – | 99 nM | – | – | 224 nM | – | 283 nM | – | 157 nM | 86 nM | 177 nM | – | CCCCO/N=C(\c1ccc(C(=O)O)cc1)c1cc2c(cc1C)C(C)(C)CCC2(C)C
– | – | > 10000 nM | – | – | > 1000 nM | – | > 1000 nM | – | > 10000 nM | > 10000 nM | > 1000 nM | – | Cc1cc2c(cc1/C(=N\OC(C)(C)C)c1ccc(C(=O)O)cc1)C(C)(C)CCC2(C)C
– | – | 254 nM | – | – | 238 nM | – | > 1000 nM | – | 377 nM | 384 nM | 394 nM | – | CO/N=C(/c1ccc(C(=O)O)cc1)c1cc2c(cc1C)C(C)(C)CCC2(C)C

Compound | Efficacy [1] | Ki [2] | EC50 [3] | Ki [4] | Ki [5] | Ki [6] | Efficacy [7] | Ki [8] | Efficacy [9] | EC50 [10] | EC50 [11] | Ki [12] | Efficacy [13]
CC1(C)CCC(C)(C)c2cc(/C(=N/O)c3ccc(C(=O)O)cc3)ccc21 | – | – | 2890 nM | – | – | 5050 nM | – | 3360 nM | – | > 10000 nM | 2960 nM | 4230 nM | –
CO/N=C(/c1ccc(C(=O)O)cc1)c1ccc2c(c1)C(C)(C)CCC2(C)C | – | – | 206 nM | – | – | 558 nM | – | 363 nM | – | 207 nM | 253 nM | > 1000 nM | –
